Test results from patent publication US20210283163A1, “COMPOSITIONS AND METHODS FOR THE TREATMENT OF ACUTE AND CHRONIC PRURITIS” (Duke University, priority 2018, published 2021).

Key:
Format in all cases: cell-based
TRPV2 = target: T1, TRPV2 (Mus musculus, UniProt Q9WTR1); assay: Whole-cell patch clamp in CHO cells transfected with mouse Trpv2 cDNA; conditions: miR-711 10 μM; cannabidiol 100 μM
T1 construct: expressed in transfected cells; host or cells: CHO cells (ATCC CRL-9096), plasmid pcDNA3.1-mTrpv2, a gift from Korea University
T1 sequence (Q9WTR1 1-756): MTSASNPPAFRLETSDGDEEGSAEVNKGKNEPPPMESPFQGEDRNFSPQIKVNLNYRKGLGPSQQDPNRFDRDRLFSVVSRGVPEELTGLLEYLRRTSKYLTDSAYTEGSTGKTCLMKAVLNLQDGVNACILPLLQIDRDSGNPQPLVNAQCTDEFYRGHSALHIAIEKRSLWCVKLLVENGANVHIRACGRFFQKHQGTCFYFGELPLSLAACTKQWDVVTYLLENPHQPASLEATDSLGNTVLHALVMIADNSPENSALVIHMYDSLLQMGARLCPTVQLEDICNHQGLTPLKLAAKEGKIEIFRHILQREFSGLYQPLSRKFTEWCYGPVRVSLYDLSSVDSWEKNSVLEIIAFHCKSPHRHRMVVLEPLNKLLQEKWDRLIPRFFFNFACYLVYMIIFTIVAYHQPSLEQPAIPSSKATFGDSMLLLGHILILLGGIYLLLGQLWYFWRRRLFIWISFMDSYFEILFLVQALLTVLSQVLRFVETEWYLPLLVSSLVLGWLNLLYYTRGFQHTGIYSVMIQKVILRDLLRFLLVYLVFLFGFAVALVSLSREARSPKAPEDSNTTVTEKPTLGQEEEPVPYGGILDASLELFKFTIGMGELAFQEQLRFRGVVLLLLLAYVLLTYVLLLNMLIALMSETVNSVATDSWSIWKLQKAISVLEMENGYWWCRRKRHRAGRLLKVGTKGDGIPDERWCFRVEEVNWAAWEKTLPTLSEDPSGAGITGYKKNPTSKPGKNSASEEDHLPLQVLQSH
Experimental: (§1) Constructs. The cDNAs of mouse pcDNA3.1-Trpa1, pcDNA3.1-Trpv1, pcDNA3.1-Trpv2, pcDNA3.1-Trpv3, and pcDNA3.1-Trpv4 were kindly provided Dr. Sun Work Hwang from Korea University. Mouse Trpa1 cDNA was subcloned into pCGN-HA backbone (Addgene) using In-Fusion HD Cloning Kit (Clontech Laboratories, CA). Q5 Site-Directed Mutagenesis Kit was used to generate mTrpa1 mutant (M1-M13) based on pCGN-mTrpa1.
(§2) Cell Culture and Transfection. CD4^+ Myla cell line was cultured in RPMI 1640 media (GIBCO), supplemented with 2 mM Glutamine (GIBCO), 100 U/mL IL-2 (Sigma), 100 U/mL IL-4 (Sigma), and 10% human AB serum (Sigma). HuT 102 cell line was cultured in RPMI 1640 supplemented with pyruvate, HEPES, and 10% (v/v) fetal bovine serum (HyClone). HEK293-hTRPA1 stable cell line was cultured in MEM (GIBCO) containing 2 mM Glutamine, 4 μg/mL Blasticidin, 10% FBS (v/v). B16 and CHO cells were cultured in high glucose (4.5 g/L) Dulbecco's Modified Eagle's Medium (GIBCO) containing 10% (v/v) fetal bovine serum (GIBCO). Culture media were supplemented with 50 units/mL of penicillin and 50 μg/mL streptomycin, and cultures were maintained with 5% CO2 in 37° C. incubator. Transfection (2 μg cDNA) was performed with Lipofectamine™ 2000 Reagent (Invitrogen) at 80% confluency and the transfected cells were cultured in the same media for 48 hr before electrophysiological and biochemical studies. […]

calcium channels = assay: Calcium current recording in mouse DRG neurons; conditions: 10 μM, 1 min
Experimental: To test the effects of miR-711 on calcium channels, calcium currents were recorded in mouse DRG neurons (Andrade et al., Nat. Neurosci. 2010, 13, 1249-1256). Calcium current was evoked by a 40-ms step depolarization to −10 mV from the holding potential of −80 mV, using i) external solution (mM): 135 mM TEA-C1, 1 mM CaCl2, 10 mM HEPES, 4 mM MgCl2 and 0.1 μM TTX, adjusted to a pH of 7.4 with TEA-OH, and ii) the pipette solution: 126 mM CsCl, 5 mM Mg-ATP, 10 mM EGTA and 10 mM HEPES, adjusted to a pH of 7.3 with CsOH.

TRPV1 = target: T2, TRPV1 (Mus musculus, UniProt Q704Y3); assay: Whole-cell patch clamp in CHO cells transfected with mouse Trpv1 cDNA; conditions: miR-711 10 μM; capsaicin 50 nM
T2 construct: expressed in transfected cells; host or cells: CHO cells (ATCC CRL-9096), plasmid pcDNA3.1-mTrpv1, a gift from Korea University
Experimental: as §1, §2

T2 sequence (Q704Y3 whole entry): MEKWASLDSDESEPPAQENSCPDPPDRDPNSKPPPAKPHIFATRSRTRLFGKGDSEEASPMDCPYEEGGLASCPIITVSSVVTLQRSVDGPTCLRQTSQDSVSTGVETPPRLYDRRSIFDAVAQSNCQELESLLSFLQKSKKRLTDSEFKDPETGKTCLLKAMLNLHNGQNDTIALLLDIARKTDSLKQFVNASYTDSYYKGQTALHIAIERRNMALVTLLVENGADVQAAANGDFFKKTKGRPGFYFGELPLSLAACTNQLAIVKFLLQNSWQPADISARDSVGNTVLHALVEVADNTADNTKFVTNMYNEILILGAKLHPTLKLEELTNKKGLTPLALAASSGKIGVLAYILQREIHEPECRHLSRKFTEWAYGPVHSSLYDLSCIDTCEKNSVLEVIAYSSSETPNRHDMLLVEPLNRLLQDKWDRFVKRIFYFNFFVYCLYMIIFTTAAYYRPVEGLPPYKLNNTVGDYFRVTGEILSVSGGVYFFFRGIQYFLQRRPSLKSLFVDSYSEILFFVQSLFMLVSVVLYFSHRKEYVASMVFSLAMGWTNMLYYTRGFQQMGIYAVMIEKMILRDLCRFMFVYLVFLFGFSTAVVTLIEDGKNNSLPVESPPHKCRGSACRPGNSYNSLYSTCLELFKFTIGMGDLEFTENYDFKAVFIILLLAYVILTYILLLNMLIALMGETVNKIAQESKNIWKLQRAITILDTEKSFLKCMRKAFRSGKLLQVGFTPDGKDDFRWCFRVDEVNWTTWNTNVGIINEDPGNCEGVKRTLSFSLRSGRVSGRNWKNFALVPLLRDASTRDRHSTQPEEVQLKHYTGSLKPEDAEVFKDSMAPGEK

miR-711: mmu-miR-711: gggacccggggagagauguaag (SEQ ID NO: 5) (GGGACCCGGGGAGAGAUGUAAG; chemistry not given here)
inward currents (TRPV2): failed to trigger inward currents
calcium currents in DRG neurons (calcium channels): did not alter calcium currents
inward currents (TRPV1): failed to trigger inward currents
